Experimental data: ChEMBL document CHEMBL1268839, “Small molecules targeting the interaction between HIV-1 integrase and LEDGF/p75 cofactor” (Bioorg Med Chem, 2010)

Tests used:
[1] = Inhibition of HIV-1 His6-tagged integrase-recombinant flag-tagged LEDGF/p75 interaction 1 hr by alphascreen assay
[2] = Inhibition of HIV1 His6-tagged integrase-recombinant flag-tagged LEDGF/p75 interaction at 100 uM after 1 hr by alphascreen assay
[3] = Selectivity ratio of compound IC50 to CHIBA-3003 IC50 for HIV-1 His6-tagged integrase-recombinant flag-tagged LEDGF/p75 interaction

Compound	IC50 [1] [µM]	inhibition [2] [%]	Ratio IC50 [3]
Cc1cccc(Cn2cc(C(=O)/C=C(\O)C(=O)O)c3c(O)cccc32)c1C	28.5	93	
Cc1ccccc1Cn1cc(C(=O)/C=C(\O)C(=O)O)c2c(O)cccc21		20	
Cc1ccc(Cn2cc(C(=O)C3=C(O)C(=O)OC3)c3c(O)cccc32)c(C)c1	11.7	96	
CCOC(=O)/C(O)=C/C(=O)c1cn(Cc2ccc(C)cc2C)c2cccc(O)c12		58	
CCOC(=O)/C(O)=C/C(=O)c1cn(Cc2cc(C)cc(C)c2)c2cccc(O)c12		52	
Cc1cc(C)cc(Cn2cc(C(=O)C3=C(O)C(=O)OC3)c3c(O)cccc32)c1	123	69	
Cc1cccc(Cn2cc(C(=O)/C=C(\O)C(=O)O)c3c(O)cccc32)c1		16	
CCOC(=O)/C(O)=C/C(=O)c1cn(Cc2ccc(C)cc2)c2cccc(O)c12	171	60	
Cc1cccc(Cn2cc(C(=O)C3=C(O)C(=O)OC3)c3c(O)cccc32)c1	53.3	61	
Cc1ccc(Cn2cc(C(=O)/C=C(\O)C(=O)O)c3c(O)cccc32)cc1	68	86	
O=C(O)/C(O)=C/C(=O)c1c[nH]c2cccc(O)c12	35	71	
Cc1cccc(C)c1Cn1cc(C(=O)C2=C(O)C(=O)OC2)c2c(O)cccc21	7.5	70	
CCOC(=O)/C(O)=C/C(=O)c1cn(Cc2cccc(C)c2)c2cccc(O)c12		45	
Cc1ccc(Cn2cc(C(=O)/C=C(\O)C(=O)O)c3c(O)cccc32)c(C)c1		55	
O=C(O)/C(O)=C/C(=O)c1cn(Cc2ccc(F)cc2)c2cccc(O)c12	76	56	
Cc1ccc(C)c(Cn2cc(C(=O)/C=C(\O)C(=O)O)c3c(O)cccc32)c1		40	
CCOC(=O)/C(O)=C/C(=O)c1cn(Cc2cccc(C)c2C)c2cccc(O)c12		57	
CCOC(=O)/C(O)=C/C(=O)c1cn(Cc2c(C)cccc2C)c2cccc(O)c12		47	
Cc1cccc(Cn2cc(C(=O)C3=C(O)C(=O)OC3)c3c(O)cccc32)c1C		70	
Cc1cc(C)cc(Cn2cc(C(=O)/C=C(\O)C(=O)O)c3c(O)cccc32)c1	3.5	94	10
Cc1ccc(C)c(Cn2cc(C(=O)C3=C(O)C(=O)OC3)c3c(O)cccc32)c1		38	
Cc1cccc(C)c1Cn1cc(C(=O)/C=C(\O)C(=O)O)c2c(O)cccc21		72	
Cc1ccccc1Cn1cc(C(=O)C2=C(O)C(=O)OC2)c2c(O)cccc21		34	
Cc1ccc(Cn2cc(C(=O)C3=C(O)C(=O)OC3)c3c(O)cccc32)cc1	8.7	81	
CCOC(=O)/C(O)=C/C(=O)c1cn(Cc2ccccc2C)c2cccc(O)c12		24	
CCOC(=O)/C(O)=C/C(=O)c1cn(Cc2cc(C)ccc2C)c2cccc(O)c12		33	
